From patent US7557107B2, “Farnesyl protein transferase inhibitors as antitumor agents” (Schering Coporation, priority 2003, dated 2009)
Values joined by “and” are separate entries in the source; they are usually repeats but may differ in a detail not shown here. Equal entries are not always repeated.

Tests used:
[1] = target: purified human farnesyl protein transferase (Homo sapiens, UniProt P49354+P49356); test: FPT activity: transfer of [3H] farnesyl from [3H] farnesyl pyrophosphate to biotinylated H-ras peptide (SPA); assay type: biochemical; details: 0.03 nM enzyme, 37° C., 60 minutes
Procedure: FPT activity was determined by measuring the transfer of [^3H] farnesyl from [^3H] farnesyl pyrophosphate to a biotinylated peptide derived from the C-terminus of H-ras (biotin-CVLS). The reaction mixture contains: 50 mM Tris pH7.7, 5 mM MgCl2, 5 μM Zn^++, 5 mM DTT, 0.1% Triton-X, 0.05 μM peptide, 0.03 nM purified human farnesyl protein transferase, 0.180 μM [^3H] farnesyl pyrophosphate, plus the indicated concentration of tricyclic compound or vehicle control in a total volume of 100 μl. The reaction was incubated in a yortemp shaking incubator at 37° C., 45 RPM for 60 minutes and stopped with 150 μl of 0.25 M EDTA containing 0.5% BSA and 1.3 mg/ml Streptavidin SPA beads. Radioactivity was measured in a Wallach 1450 Microbeta liquid scintillation counter. Percent inhibition was calculated relative to the vehicle control.

Human tumor cells = test: Soft Agar Assay (anchorage-independent growth); assay type: cell-based; details: colony outgrowth 10-16 days, MTT stain
Procedure: Anchorage-independent growth is a characteristic of tumorigenic cell lines. Human tumor cells can be suspended in growth medium containing 0.3% agarose and an indicated concentration of a famesyl transferase inhibitor. The solution can be overlayed onto growth medium solidified with 0.6% agarose containing the same concentration of farnesyl transferase inhibitor as the top layer. After the top layer is solidified, plates can be incubated for 10-16 days at 37° C. under 5% CO2 to allow colony outgrowth. After incubation, the colonies can be stained by overlaying the agar with a solution of MTT (3-[4,5-dimethyl-thiazol-2-yl]-2,5-diphenyltetrazolium bromide, Thiazolyl blue) (1 mg/mL in PBS). Colonies can be counted and the IC50's can be determined.

| SMILES | IC50 [1] | IC50 (Human tumor cells) [nM] |
| --- | --- | --- |
| Cn1cncc1[C@H](NC(=O)OC1(C)CC1)C1=Cc2cccnc2[C@@H](N2CCN(C(=O)OC3(C)CC3)CC2)c2ccc(Cl)cc21 [Compound 108.1] | 0.5 to 5 nM and 1.5 nM | < 0.5 |
| Cn1cncc1[C@H](NC(=O)OC1(C2CC2)CC1)C1=Cc2cccnc2[C@@H](N2CCN(C(=O)OC3CCCC3)CC2)c2ccc(Cl)cc21 [Compound 112.1, 4-{6-[(Bicyclopropyl-1-yloxycarbonylamino)-(3-methyl-3H-imidazol-4-yl)-methyl]-8-chloro-11H-benzo[5,6]cyclohepta[1,2-b]pyridin-11-yl}-piperazine-1-carboxylic acid cyclopentyl ester] | 0.5 to 5 nM | – |
| CC(C)C1(OC(=O)N2CCN([C@H]3c4ccc(Cl)cc4C([C@@H](NC(=O)OC4(C)CC4)c4cncn4C)=Cc4cccnc43)CC2)CC1 [Compound 118.1] | 0.5 to 5 nM | – |
| COC1(C(=O)N[C@H](C2=Cc3cccnc3[C@@H](N3CCN(C(=O)OCC(C)(C)C)CC3)c3ccc(Cl)cc32)c2cncn2C)CC1 [Compound 119.1] | 0.5 to 5 nM | – |
| COC1(C(=O)N[C@H](C2=Cc3cccnc3[C@@H](N3CCN(C(=O)OCC4(C)CC4)CC3)c3ccc(Cl)cc32)c2cncn2C)CC1 [Compound 120.1] | 0.5 to 5 nM | – |
| COCC(=O)N[C@H](C1=Cc2cccnc2[C@@H](N2CCN(C(=O)OC(C)C)CC2)c2ccc(Cl)cc21)c1cncn1C [Compound 136.1] | 0.5 to 5 nM and 0.6 nM | 0.6 |
| COC1(C(=O)N[C@H](C2=Cc3cccnc3[C@@H](N3CCN(C(=O)OC(C)C)CC3)c3ccc(Cl)cc32)c2cncn2C)CC1 [Compound 152.1, 4-{8-Chloro-6-[[(1-methoxy-cyclopropanecarbonyl)-amino]-(3-methyl-3H-imidazol-4-yl)-methyl]-11H-benzo[5.6]cyclohepta[1,2-b]pyridin-11-yl}-piperazine-1-carboxylic acid isopropyl ester] | 0.5 to 5 nM | – |
